Measured values from publication PMC8765781, “A platform of assays for the discovery of anti-Zika small-molecules with activity in a 3D-bioprinted outer-blood-retina model” (PLoS ONE, 2022).
Read-outs that look alike come from different tables or passages of the source.

Legend:
[1] = test system: ZIKV-RLuc (Cambodian strain FSS13025); assay: microbe, parasite or virus in culture; assay type: cell-based, Zika virus
[2] = Zika virus, Vero, read-out: Log AC50 (M) (converted)

Row | SMILES | AC50 (Vero cells) | Log AC50 (M) (Vero cells) | CC-v2 (curve class classification v2 of the dose response curve) [1] | Efficacy (difference between neutral response and maximum compound response) [1] | Max Resp (difference between neutral response and compound response for highest compound concentration) [1] | AC50 ([1]; Zika virus, Vero) | AC50 [1, 2] | AC50 [1] | Log AC50 (M) [1]
1 | CN1CCN(CCCN2c3ccccc3Sc3ccc(C(F)(F)F)cc32)CC1 [NCGC00013226-15] | 23.3 µM | -4.6327 M | -2.1 | -93.82 | -95.429 | 2.33e-05 M | 2.33e-05 M | – | –
2 | CC(C)(O)/C=C\C(=O)[C@](C)(O)[C@H]1[C@H](O)C[C@]2(C)[C@@H]3CC=C4[C@@H](C=C(O)C(=O)C4(C)C)[C@]3(C)C(=O)C[C@@]12C [NCGC00014911-01] | 3.29 µM | -5.4827 M | -1.1 | -103.985 | -99.739 | 3.29e-06 M | 3.29e-06 M | – | –
3 | CCCCc1oc2ccccc2c1C(=O)c1cc(I)c(OCCN(CC)CC)c(I)c1 [NCGC00015096-17] | 18.5 µM | -4.7327 M | -2.1 | -100.133 | -98.715 | 1.85e-05 M | 1.85e-05 M | – | –
4 | CNCCC(Oc1ccc(C(F)(F)F)cc1)c1ccccc1 (stereo not drawn) [NCGC00015428-15] | 16.5 µM | -4.7827 M | -2.2 | -78.657 | -76.003 | 1.65e-05 M | 1.65e-05 M | – | –
5 | OCCN1CCN(CCCN2c3ccccc3Sc3ccc(C(F)(F)F)cc32)CC1 [NCGC00015436-11] | 26.1 µM | -4.5827 M | -3 | -75.446 | -79.581 | 2.61e-05 M | 2.61e-05 M | – | –
6 | CC(C)(Sc1ccc(CCN(CCCCC2CCCCC2)C(=O)NC2CCCCC2)cc1)C(=O)O [NCGC00015480-13] | 32.9 µM | – | -2.2 | -93.466 | -98.662 | 3.29e-05 M | 3.29e-05 M | – | –
7 | O=C(Nc1ccc([N+](=O)[O-])cc1Cl)c1cc(Cl)ccc1O [NCGC00015735-11] | 0.362 µM | -6.4408 M | -1.1 | -106.368 | -100.429 | – | – | 3.62e-07 M | -6.4408
8 | O=C(Nc1ccc([N+](=O)[O-])cc1Cl)c1cc(Cl)ccc1O [NCGC00015735-12] | 1.04 µM | -5.9827 M | -1.1 | -94.574 | -99.55 | – | – | 1.04e-06 M | -5.9827
9 | CCCN(CC1CC1)c1nc(C)nc(Nc2c(Cl)cc(Cl)cc2Cl)c1Cl [NCGC00015737-02] | 36.9 µM | -4.4327 M | -3 | -116.403 | -99.557 | 3.69e-05 M | 3.69e-05 M | – | –
10 | COC(=O)C1=C(C)NC(C)=C(C(=O)OCCN(C)Cc2ccccc2)C1c1cccc([N+](=O)[O-])c1 (stereo not drawn) [NCGC00015747-03] | 36.9 µM | -4.4327 M | -3 | -68.655 | -54.296 | 3.69e-05 M | 3.69e-05 M | – | –
11 | O=c1[nH]c2ccccc2n1C1CCN(CCCC(c2ccc(F)cc2)c2ccc(F)cc2)CC1 [NCGC00015802-18] | 20.8 µM | -4.6827 M | -2.1 | -98.365 | -96.477 | 2.08e-05 M | 2.08e-05 M | – | –
12 | COc1ccc(CCN(C)CCCC(C#N)(c2ccc(OC)c(OC)c2)C(C)C)cc1OC (stereo not drawn) [NCGC00016083-13] | 15.1 µM | -4.8199 M | – | – | – | 1.51e-05 M | 1.51e-05 M | – | –
13 | CC(=O)O[C@H]1C(=O)[C@@]2(C)C([C@H](OC(=O)c3ccccc3)[C@]3(O)C[C@H](OC(=O)[C@H](O)[C@@H](NC(=O)c4ccccc4)c4ccccc4)C(C)=C1C3(C)C)[C@]1(OC(C)=O)CO[C@@H]1C[C@@H]2O (stereo partly drawn) [NCGC00024995-10] | 20.8 µM | -4.6827 M | -2.2 | -75.217 | -63.948 | 2.08e-05 M | 2.08e-05 M | – | –
14 | C[S+]([O-])c1ccc(-c2nc(-c3ccc(F)cc3)c(-c3ccncc3)[nH]2)cc1 (stereo not drawn) [NCGC00025035-05] | 47.9 µM | -4.3199 M | -2.1 | -107.599 | -87.79 | 4.79e-05 M | 4.79e-05 M | – | –
15 | CC1OC(OC2C(O)COC(O[C@@H]3[C@@H](O)[C@@H](O)[C@H](OC4C(OC(=O)[C@]56CCC(C)(C)CC5C5=CCC7[C@@]8(C)C[C@H](O)[C@H](OC9OC(CO)C(O)C(O)C9O)[C@@](C)(CO)C8[C@H](O)C[C@@]7(C)[C@]5(C)CC6)OCC(O)C4O)O[C@H]3C)C2O)C(O)C(O)C1O (stereo partly drawn) [NCGC00385323-01] | – | – | -3 | – | -39.964 | – | – | – | –
16 | CC(=O)O[C@H]1C[C@@H]2[C@]3(CC[C@]4(C)[C@@H](C5(C)CCC(C(C)(C)O)O5)[C@@H](O)C[C@@]24C)C[C@@]32CC[C@H](O[C@@H]3OC[C@@H](O)[C@H](O)[C@H]3O)C(C)(C)[C@H]12 (stereo partly drawn) [NCGC00385494-01] | – | – | 4 | 27.089 | -22.612 | – | – | – | –
17 | CCC(C)C(O)C(=O)OC1CC2C(C)(C)C(OC(C)=O)CC(OC(C)=O)C2(C)C2CC(OC(C)=O)C3(C)C(=CCC3c3ccoc3)C12C (stereo not drawn) [NCGC00385571-01] | – | – | -3 | 0 | -47.611 | – | – | – | –
18 | CC1=CC(=O)C(=C(C)C)CC2C(C)(O)CCC12O (stereo not drawn) [NCGC00385849-01] | – | – | -1.2 | -35.641 | -12.132 | – | – | – | –
